# Measurements: patent publication US20250195463A1, “ORGANOMETALLIC COMPLEX, CONTROLLED-RELEASE MULTI-FUNCTIONAL DRUG, PHARMACEUTICAL COMPOSITION, PROCESSES FOR THE PREPARATION THEREOF AND THEIR USE” (FACULDADE DE CIÊNCIAS DA UNIVERSIDADE DE LISBOA, priority 2022, published 2025)
# Columns and labels:
# [1] = Stability in aqueous medium (dimethyl sulfoxide/Dulbecco's Modified Eagle Medium) by UV-Vis spectroscopy; format: physicochemical; conditions: 5% dimethyl sulfoxide/95% Dulbecco's Modified Eagle Medium; for Relative variation of the maximum absorbance of the π→π* transitions: band 292-296 nm (λmax in column head); for Relative variation of the maximum absorbance of the charge transfer bands: band 358-400 nm (λmax in column head)
# Method: (§1) The stability of the complexes 4-11 in organic and aqueous media was evaluated over 24 h by UV-Vis spectroscopy at room temperature, in dark, on a Jasco V-660 spectrometer using quartz cuvettes (1 cm optical path length). The electronic spectra (270-900 nm) were acquired at regular periods of time (0 h, 0.25 h, 0.5 h, 0.75 h, 1 h, 2 h, 3 h, 4 h, 5 h, 6 h, 24 h) for solutions of 100% dimethyl sulfoxide (complexes 4-11) and 5% dimethyl sulfoxide/95% Dulbecco's Modified Eagle Medium (complexes 4, 5 and 8-11) or 10% dimethyl sulfoxide/90% Dulbecco's Modified Eagle Medium (complexes 6 and 7) at concentrations ranging from 7.0×10^-5 M to 3.0×10^-4 M.
# [2] = Stability in organic medium (dimethyl sulfoxide) by UV-Vis spectroscopy; format: physicochemical; conditions: for Relative variation of the maximum absorbance of the charge transfer bands: band 357-425 nm (λmax in column head); for Relative variation of the maximum absorbance of the π→π* transitions: band 289-300 nm (λmax in column head)
# Method: as §1
smiles,measurement,setting,value
CCOC(=O)Oc1cc[n+]2c(c1)-c1cc(OC)cc[n+]1[Ru-]2([CH]1C=CC=C1)[PH](c1ccccc1)(c1ccccc1)c1ccccc1.O=S(=O)([O-])C(F)(F)F (centres unmarked) [compound 11],Relative variation of the maximum absorbance of the π→π* transitions,[1]; time 0 h,0.0%
same,Relative variation of the maximum absorbance of the charge transfer bands,[1]; time 0 h,0.0%
same,Relative variation of the maximum absorbance of the π→π* transitions,[1]; time 0.25 h,−0.2%
same,Relative variation of the maximum absorbance of the charge transfer bands,[1]; time 0.25 h,−0.1%
same,Relative variation of the maximum absorbance of the π→π* transitions,[1]; time 0.5 h,−0.3%
same,Relative variation of the maximum absorbance of the charge transfer bands,[1]; time 0.5 h,0.0%
same,Relative variation of the maximum absorbance of the π→π* transitions,[1]; time 0.75 h,−0.2%
same,Relative variation of the maximum absorbance of the charge transfer bands,[1]; time 0.75 h,0.1%
same,Relative variation of the maximum absorbance of the π→π* transitions,[1]; time 1 h,−0.2%
same,Relative variation of the maximum absorbance of the charge transfer bands,[1]; time 1 h,0.1%
same,Relative variation of the maximum absorbance of the π→π* transitions,[1]; time 2 h,−0.5%
same,Relative variation of the maximum absorbance of the charge transfer bands,[1]; time 2 h,0.1%
same,Relative variation of the maximum absorbance of the π→π* transitions,[1]; time 3 h,−0.4%
same,Relative variation of the maximum absorbance of the charge transfer bands,[1]; time 3 h,0.1%
same,Relative variation of the maximum absorbance of the π→π* transitions,[1]; time 4 h,−0.9%
same,Relative variation of the maximum absorbance of the charge transfer bands,[1]; time 4 h,0.0%
same,Relative variation of the maximum absorbance of the π→π* transitions,[1]; time 5 h,−0.7%
same,Relative variation of the maximum absorbance of the charge transfer bands,[1]; time 5 h,0.1%
same,Relative variation of the maximum absorbance of the π→π* transitions,[1]; time 6 h,−0.4%
same,Relative variation of the maximum absorbance of the charge transfer bands,[1]; time 6 h,0.2%
same,Relative variation of the maximum absorbance of the π→π* transitions,[1]; time 24 h,−1.0%
same,Relative variation of the maximum absorbance of the charge transfer bands,[1]; time 24 h,0.4%
same,Relative variation of the maximum absorbance of the charge transfer bands,[2]; time 0 h,0.0%
same,Relative variation of the maximum absorbance of the charge transfer bands,[2]; time 0.25 h,0.0%
same,Relative variation of the maximum absorbance of the charge transfer bands,[2]; time 0.5 h,0.2%
same,Relative variation of the maximum absorbance of the charge transfer bands,[2]; time 0.75 h,0.1%
same,Relative variation of the maximum absorbance of the charge transfer bands,[2]; time 1 h,0.3%
same,Relative variation of the maximum absorbance of the charge transfer bands,[2]; time 2 h,0.1%
same,Relative variation of the maximum absorbance of the charge transfer bands,[2]; time 3 h,0.0%
same,Relative variation of the maximum absorbance of the charge transfer bands,[2]; time 4 h,−0.2%
same,Relative variation of the maximum absorbance of the charge transfer bands,[2]; time 5 h,−0.3%
same,Relative variation of the maximum absorbance of the charge transfer bands,[2]; time 6 h,−0.3%
same,Relative variation of the maximum absorbance of the charge transfer bands,[2]; time 24 h,0.2%
COc1cc[n+]2c(c1)-c1cc(O)cc[n+]1[Ru-]2([CH]1C=CC=C1)[PH](c1ccccc1)(c1ccccc1)c1ccccc1.O=S(=O)([O-])C(F)(F)F (centres unmarked) [compound 10],Relative variation of the maximum absorbance of the π→π* transitions,[1]; time 0 h,0.0%
same,Relative variation of the maximum absorbance of the charge transfer bands,[1]; time 0 h,0.0%
same,Relative variation of the maximum absorbance of the π→π* transitions,[1]; time 0.25 h,0.0%
same,Relative variation of the maximum absorbance of the charge transfer bands,[1]; time 0.25 h,−0.8%
same,Relative variation of the maximum absorbance of the π→π* transitions,[1]; time 0.5 h,−1.7%
same,Relative variation of the maximum absorbance of the charge transfer bands,[1]; time 0.5 h,−0.7%
same,Relative variation of the maximum absorbance of the π→π* transitions,[1]; time 0.75 h,−1.9%
same,Relative variation of the maximum absorbance of the charge transfer bands,[1]; time 0.75 h,−1.0%
same,Relative variation of the maximum absorbance of the π→π* transitions,[1]; time 1 h,−2.2%
same,Relative variation of the maximum absorbance of the charge transfer bands,[1]; time 1 h,−1.3%
same,Relative variation of the maximum absorbance of the π→π* transitions,[1]; time 2 h,−3.1%
same,Relative variation of the maximum absorbance of the charge transfer bands,[1]; time 2 h,−2.3%
same,Relative variation of the maximum absorbance of the π→π* transitions,[1]; time 3 h,−4.1%
same,Relative variation of the maximum absorbance of the charge transfer bands,[1]; time 3 h,−3.1%
same,Relative variation of the maximum absorbance of the π→π* transitions,[1]; time 4 h,−5.1%
same,Relative variation of the maximum absorbance of the charge transfer bands,[1]; time 4 h,−3.6%
same,Relative variation of the maximum absorbance of the π→π* transitions,[1]; time 5 h,−5.6%
same,Relative variation of the maximum absorbance of the charge transfer bands,[1]; time 5 h,−4.3%
same,Relative variation of the maximum absorbance of the π→π* transitions,[1]; time 6 h,−6.0%
same,Relative variation of the maximum absorbance of the charge transfer bands,[1]; time 6 h,−4.8%
same,Relative variation of the maximum absorbance of the π→π* transitions,[1]; time 24 h,−7.0%
same,Relative variation of the maximum absorbance of the charge transfer bands,[1]; time 24 h,−5.0%
same,Relative variation of the maximum absorbance of the π→π* transitions,[2]; time 0 h,0.0%
same,Relative variation of the maximum absorbance of the charge transfer bands,[2]; time 0 h,0.0%
same,Relative variation of the maximum absorbance of the π→π* transitions,[2]; time 0.25 h,0.0%
same,Relative variation of the maximum absorbance of the charge transfer bands,[2]; time 0.25 h,0.0%
same,Relative variation of the maximum absorbance of the π→π* transitions,[2]; time 0.5 h,0.0%
same,Relative variation of the maximum absorbance of the charge transfer bands,[2]; time 0.5 h,−0.2%
same,Relative variation of the maximum absorbance of the π→π* transitions,[2]; time 0.75 h,−0.1%
same,Relative variation of the maximum absorbance of the charge transfer bands,[2]; time 0.75 h,−0.3%
same,Relative variation of the maximum absorbance of the π→π* transitions,[2]; time 1 h,0.9%
same,Relative variation of the maximum absorbance of the charge transfer bands,[2]; time 1 h,0.7%
same,Relative variation of the maximum absorbance of the π→π* transitions,[2]; time 2 h,1.5%
same,Relative variation of the maximum absorbance of the charge transfer bands,[2]; time 2 h,1.5%
same,Relative variation of the maximum absorbance of the π→π* transitions,[2]; time 3 h,2.5%
same,Relative variation of the maximum absorbance of the charge transfer bands,[2]; time 3 h,2.5%
same,Relative variation of the maximum absorbance of the π→π* transitions,[2]; time 4 h,3.0%
same,Relative variation of the maximum absorbance of the charge transfer bands,[2]; time 4 h,3.1%
same,Relative variation of the maximum absorbance of the π→π* transitions,[2]; time 5 h,3.0%
same,Relative variation of the maximum absorbance of the charge transfer bands,[2]; time 5 h,3.2%
same,Relative variation of the maximum absorbance of the π→π* transitions,[2]; time 6 h,2.8%
same,Relative variation of the maximum absorbance of the charge transfer bands,[2]; time 6 h,3.1%
same,Relative variation of the maximum absorbance of the π→π* transitions,[2]; time 24 h,3.3%
same,Relative variation of the maximum absorbance of the charge transfer bands,[2]; time 24 h,4.2%
